Records with an inconclusive call do not appear.

The assay has as its system C. albicans CaCi-8 + fluconazole, Alamar Blue growth, 48 h. Kind of assay: resistant C. albicans growth inhibition with fluconazole, dose response, CaCi-8 strain, Alamar Blue fluorescence (AID 2423).
For the compound `COc1ccccc1NC1=C(N2CCCCC2)C(=O)c2ccccc2C1=O`, the EC50 is 245 nM.
As for `CN1CCN(C(c2ccc(Br)cc2)c2cc(Cl)c3cccnc3c2O)CC1` (stereo not drawn), the figure is 624 nM; as for `COc1ccc(C(=O)NC(=S)NNC(=O)c2ccc3ccccc3n2)cc1`, 583 nM.

These data come from PubChem BioAssay AID2423 (Broad Institute, 2010).
